The source of these data is patent US20240409585A1, “MACROCYCLIC IMMUNOMODULATORS” (priority 2021, published 2024).

Numbered stars: 1 amine (or outer) side, 2 acyl side, 3 side chain; on linkers, the order of the positions; unused ones are H or OH. Bridge positions count the residues as written; N and C are the ends. Square brackets hold non-standard residues; d marks the D form. Peptide text beside a SMILES is read from it. * marks the point of attachment. Bip(4'-COOH) = N[C@@H](Cc1ccc(-c2ccc(C(=O)O)cc2)cc1)C(=O)O; Bip(4'-NHAc) = CC(=O)Nc1ccc(-c2ccc(C[C@H](N)C(=O)O)cc2)cc1; X24 = COc1ccccc1-c1cn(C[C@H](N[*:1])C(=O)[*:2])nn1; Phe(3-CF3) = N[C@@H](Cc1cccc(C(F)(F)F)c1)C(=O)O; Ala(morpholin-4-yl) = N[C@@H](CN1CCOCC1)C(=O)O; Phe(4-CONH2) = NC(=O)c1ccc(C[C@H](N)C(=O)O)cc1; Phe(4-COOH) = N[C@@H](Cc1ccc(C(=O)O)cc1)C(=O)O; Bip = N[C@@H](Cc1ccc(-c2ccccc2)cc1)C(=O)O; Phe(3-Me) = Cc1cccc(C[C@H](N)C(=O)O)c1; Abu(3S-NH2) = C[C@H](N)[C@H](N)C(=O)O; Val(3-OH) = CC(C)(O)[C@H](N)C(=O)O; hArg = N=C(N)NCCCC[C@H](N)C(=O)O; hPhe = N[C@@H](CCc1ccccc1)C(=O)O; Cha = N[C@@H](CC1CCCCC1)C(=O)O; aThr = C[C@H](O)[C@H](N)C(=O)O; Carboxymethyl = O=C(O)C*; NMeA = CN[C@@H](C)C(=O)O; Orn = NCCC[C@H](N)C(=O)O; Dab = NCC[C@H](N)C(=O)O

For the first assay, the target named is T1, Alexa fluor-647 labeled human PD-L1-Ig binding to Jurkat cell line over-expressing human PD-1 (Homo sapiens, UniProt Q15116).
T1 construct: expressed in transfected cells; host or cells: Jurkat
T1 sequence (Q15116 25-288): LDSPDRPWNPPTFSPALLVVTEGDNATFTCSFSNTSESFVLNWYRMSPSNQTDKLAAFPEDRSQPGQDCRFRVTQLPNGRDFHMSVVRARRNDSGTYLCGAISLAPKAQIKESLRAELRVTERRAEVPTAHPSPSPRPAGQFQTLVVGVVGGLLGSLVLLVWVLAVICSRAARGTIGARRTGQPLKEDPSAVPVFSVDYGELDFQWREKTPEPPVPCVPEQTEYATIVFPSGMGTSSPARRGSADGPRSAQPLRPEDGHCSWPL
The experiment in a line: Jurkat-PD-1 Cell Binding High-Content Screening Assay (CBA): Method 3 (Alexa fluor-647 labeled PD-L1-Ig). The settings on record: Jurkat-PD-1 cells, Alexa fluor-647 labeled PD-L1-Ig 177 nM; head μM; read-out: CBA Method 3 μM. Put shortly: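 Readout by high-content imaging of PFA-fixed, Hoechst-stained cells after 1 h with 177 nM (final) Alexa fluor-647 PD-L1-Ig. Compound was added first to hPD-1 Jurkat cells in RPMI plus 10% FCS for 2 h at 37 °C.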
In the case of `Cc1cccc(C[C@@H]2NC(=O)[C@H](CC(=O)O)NC(=O)[C@H](Cc3ccc(C(=O)O)cc3)NC(=O)[C@H](C)NC(=O)CSC[C@@H](C(=O)N[C@@H](CCN)C(N)=O)NC(=O)[C@H](CCC(=O)O)NC(=O)[C@H](C(C)C)NC(=O)[C@H](CC3CCCCC3)NC(=O)[C@H](CCN)NC(=O)[C@@H](CC(C)C)NC(=O)[C@H](C)N(C)C(=O)[C@H](Cc3ccc(OCC(=O)O)cc3)NC(=O)[C@H](Cc3ccc(-c4ccccc4)cc3)NC(=O)[C@H](Cc3ccc(C(=O)O)cc3)NC2=O)c1` [Example 5138] ({CH2CO}-A[Phe(4-COOH)]D[Phe(3-Me)][Phe(4-COOH)][Bip]Y(Carboxymethyl)[NMeA][dL][Dab][Cha]VEC[Dab]-NH2; thioether N-14), the IC50 turned out to be 0.03 µM.

With `Cc1cccc(C[C@@H]2NC(=O)[C@H](CC(=O)O)NC(=O)[C@H](Cc3ccc(OCC(=O)O)cc3)NC(=O)[C@H](CCCCNC(=N)N)NC(=O)CSC[C@@H](C(=O)N[C@@H](CCN)C(N)=O)NC(=O)[C@H](CCC(=O)O)NC(=O)[C@H](C(C)C)NC(=O)[C@H](CC3CCCCC3)NC(=O)[C@H](CCN)NC(=O)[C@@H](CC(C)C)NC(=O)[C@H](C)N(C)C(=O)[C@H](CCC(N)=O)NC(=O)[C@H](Cc3ccc(-c4ccccc4)cc3)NC(=O)[C@H](CCc3ccccc3)NC2=O)c1` [Example 5283] ({CH2CO}-[hArg]Y(Carboxymethyl)D[Phe(3-Me)][hPhe][Bip]Q[NMeA][dL][Dab][Cha]VEC[Dab]-NH2; thioether N-14), the IC50 is 0.01 µM.

In the case of `CC(=O)Nc1ccc(-c2ccc(C[C@@H]3NC(=O)[C@H](Cc4cccc(C)c4)NC(=O)[C@H](CC(=O)O)NC(=O)[C@H](Cc4ccc(-c5ccc(C(=O)O)cc5)cc4)NC(=O)[C@H](CN4CCOCC4)NC(=O)CSC[C@@H](C(=O)N[C@@H](CCN)C(N)=O)NC(=O)[C@H](CO)NC(=O)[C@H](C(C)(C)O)NC(=O)[C@H](CC4CCCCC4)NC(=O)[C@H](CC(N)=O)NC(=O)[C@@H](CC(C)C)NC(=O)[C@H](C)N(C)C(=O)[C@H](Cc4ccc(OCC(=O)O)cc4)NC(=O)[C@H](Cc4ccc(-c5ccccc5)cc4)NC3=O)cc2)cc1` [Example 5129] ({CH2CO}-[Ala(morpholin-4-yl)][Bip(4'-COOH)]D[Phe(3-Me)][Bip(4'-NHAc)][Bip]Y(Carboxymethyl)[NMeA][dL]N[Cha][Val(3-OH)]SC[Dab]-NH2; thioether N-14), the IC50 amounted to 0.03 µM.

As to `CC(C)[C@@H]1NC(=O)[C@H](Cc2c[nH]c3ccccc23)NC(=O)[C@H](CC(=O)O)NC(=O)[C@H](Cc2ccc(O)cc2)NC(=O)[C@H](CC2CCCCC2)NC(=O)CSC[C@@H](C(=O)N[C@@H](CCN)C(N)=O)NC(=O)[C@H]([C@H](C)O)NC(=O)[C@H](C(C)(C)O)NC(=O)[C@H](CC2CCCCC2)NC(=O)[C@H](CCC(=O)O)NC(=O)[C@@H](C)NC(=O)[C@H](C)N(C)C(=O)[C@H](C(C)C)NC(=O)[C@H](Cc2ccc(-c3ccccc3)cc2)NC1=O` [Example 5150] ({CH2CO}-[Cha]YDWV[Bip]V[NMeA][dA]E[Cha][Val(3-OH)][aThr]C[Dab]-NH2; thioether N-14), the IC50 is 0.06 µM.

As for `COc1ccccc1-c1cn(C[C@@H]2NC(=O)[C@H](Cc3ccc(C(=O)O)cc3)NC(=O)[C@H](Cc3cccc(C(F)(F)F)c3)NC(=O)[C@H](CC(=O)O)NC(=O)[C@H](Cc3ccc(C(=O)O)cc3)NC(=O)[C@H](CN3CCOCC3)NC(=O)CSC[C@@H](C(=O)N[C@@H](CCN)C(N)=O)NC(=O)[C@H](CCC(=O)O)NC(=O)[C@H](C(C)C)NC(=O)[C@H](CC3CCCCC3)NC(=O)[C@H](CCN)NC(=O)[C@@H](CC(C)C)NC(=O)[C@H](C)N(C)C(=O)[C@H](Cc3ccc(C(=O)O)cc3)NC2=O)nn1` [Example 5197] ({CH2CO}-[Ala(morpholin-4-yl)][Phe(4-COOH)]D[Phe(3-CF3)][Phe(4-COOH)][X24][Phe(4-COOH)][NMeA][dL][Dab][Cha]VEC[Dab]-NH2; thioether N-14), the IC50 worked out at 0.45 µM.

Consider `CC(=O)Nc1ccc(-c2ccc(C[C@@H]3NC(=O)[C@H](Cc4cccc(C(F)(F)F)c4)NC(=O)[C@H](CC(=O)O)NC(=O)[C@H](Cc4ccc(C(=O)O)cc4)NC(=O)[C@H](CN4CCOCC4)NC(=O)CSC[C@@H](C(=O)N[C@@H](CCN)C(N)=O)NC(=O)[C@H](CCC(=O)O)NC(=O)[C@H](C(C)C)NC(=O)[C@H](CC4CCCCC4)NC(=O)[C@H](CCN)NC(=O)[C@@H](CC(C)C)NC(=O)[C@H](C)N(C)C(=O)[C@H](Cc4ccc(C(=O)O)cc4)NC(=O)[C@H](Cc4ccc(-c5ccccc5)cc4)NC3=O)cc2)cc1` [Example 5159] ({CH2CO}-[Ala(morpholin-4-yl)][Phe(4-COOH)]D[Phe(3-CF3)][Bip(4'-NHAc)][Bip][Phe(4-COOH)][NMeA][dL][Dab][Cha]VEC[Dab]-NH2; thioether N-14), for which the IC50 came out at 0.04 µM.

For `CC(C)C[C@H]1NC(=O)[C@H](C)N(C)C(=O)[C@H](Cc2ccc(C(=O)O)cc2)NC(=O)[C@H](Cc2ccc(-c3ccccc3)cc2)NC(=O)[C@H](Cc2ccc(C(=O)O)cc2)NC(=O)[C@H](Cc2cccc(C(F)(F)F)c2)NC(=O)[C@H](CC(=O)N[C@@H](CC(=O)O)C(=O)O)NC(=O)[C@H](Cc2ccc(C(=O)O)cc2)NC(=O)[C@H]([C@H](C)N)NC(=O)CSC[C@@H](C(=O)N[C@@H](CCN)C(N)=O)NC(=O)[C@H](CC(N)=O)NC(=O)[C@H](C(C)C)NC(=O)[C@H](CC2CCCCC2)NC(=O)[C@H](CCN)NC1=O` [Example 5102] ({CH2CO}-[Abu(3S-NH2)][Phe(4-COOH)]D(Asp)[Phe(3-CF3)][Phe(4-COOH)][Bip][Phe(4-COOH)][NMeA][dL][Dab][Cha]VNC[Dab]-NH2; thioether N-14), the IC50 came out at 0.51 µM.

The assay is the same for the next values; noted with them: Jurkat-PD-1 cells, Alexa fluor-647 labeled PD-L1-Ig 177 nM; nM; read-out: CBA Method 3.
Take `Cc1cccc(C[C@@H]2NC(=O)[C@H](CC(=O)O)NC(=O)[C@H](Cc3ccc(OCC(=O)O)cc3)NC(=O)[C@H](C)NC(=O)CSC[C@@H](C(=O)N[C@@H](CCN)C(N)=O)NC(=O)[C@H](CCC(=O)O)NC(=O)[C@H](C(C)C)NC(=O)[C@H](CC3CCCCC3)NC(=O)[C@H](CCN)NC(=O)[C@@H](CC(C)C)NC(=O)[C@H](C)N(C)C(=O)[C@H](Cc3ccc(C(=O)O)cc3)NC(=O)[C@H](Cc3ccc(-c4ccccc4)cc3)NC(=O)[C@H](Cc3ccc(C(=O)O)cc3)NC2=O)c1` [Example 5137] ({CH2CO}-AY(Carboxymethyl)D[Phe(3-Me)][Phe(4-COOH)][Bip][Phe(4-COOH)][NMeA][dL][Dab][Cha]VEC[Dab]-NH2; thioether N-14): the IC50 is 0.0044 µM.

With `CC(=O)Nc1ccc(-c2ccc(C[C@@H]3NC(=O)[C@H](Cc4cccc(C(F)(F)F)c4)NC(=O)[C@H](CC(=O)O)NC(=O)[C@H](Cc4ccc(C(=O)O)cc4)NC(=O)[C@H](CN4CCOCC4)NC(=O)CSC[C@@H](C(=O)N[C@@H](CCN)C(N)=O)NC(=O)[C@H](CC(N)=O)NC(=O)[C@H](C(C)C)NC(=O)[C@H](CC4CCCCC4)NC(=O)[C@H](CCN)NC(=O)[C@@H](CC(C)C)NC(=O)[C@H](C)N(C)C(=O)[C@H](CCCN)NC(=O)[C@H](Cc4ccc(-c5ccccc5)cc4)NC3=O)cc2)cc1` [Example 5111] ({CH2CO}-[Ala(morpholin-4-yl)][Phe(4-COOH)]D[Phe(3-CF3)][Bip(4'-NHAc)][Bip][Orn][NMeA][dL][Dab][Cha]VNC[Dab]-NH2; thioether N-14), the IC50 turned out to be 0.0047 µM.

For `CC(C)C[C@H]1NC(=O)[C@H](C)N(C)C(=O)[C@H](Cc2ccc(OCC(=O)O)cc2)NC(=O)[C@H](Cc2ccc(-c3ccccc3)cc2)NC(=O)[C@H](Cn2cc(C3CC3)nn2)NC(=O)[C@H](Cc2cccc(C(F)(F)F)c2)NC(=O)[C@H](CC(=O)O)NC(=O)[C@H](Cc2ccc(C(=O)O)cc2)NC(=O)[C@H](CN2CCOCC2)NC(=O)CSC[C@@H](C(=O)N[C@@H](CCN)C(N)=O)NC(=O)[C@H](CCC(N)=O)NC(=O)[C@H](C(C)C)NC(=O)[C@H](CC2CCCCC2)NC(=O)[C@H](CCN)NC1=O` [Example 5250], the IC50 came to 0.0014 µM.

As for `CC(=O)Nc1ccc(-c2ccc(C[C@@H]3NC(=O)[C@H](Cc4cccc(C)c4)NC(=O)[C@H](CC(=O)O)NC(=O)[C@H](Cc4ccc(C(=O)O)cc4)NC(=O)[C@H](CC4CCCCC4)NC(=O)CSC[C@@H](C(=O)N[C@@H](CCN)C(N)=O)NC(=O)[C@H](CCC(=O)O)NC(=O)[C@H](C(C)C)NC(=O)[C@H](CC4CCCCC4)NC(=O)[C@H](CCN)NC(=O)[C@@H](CC(C)C)NC(=O)[C@H](C)N(C)C(=O)[C@H](Cc4ccc(OCC(=O)O)cc4)NC(=O)[C@H](Cc4ccc(-c5ccccc5)cc4)NC3=O)cc2)cc1` [Example 5202] ({CH2CO}-[Cha][Phe(4-COOH)]D[Phe(3-Me)][Bip(4'-NHAc)][Bip]Y(Carboxymethyl)[NMeA][dL][Dab][Cha]VEC[Dab]-NH2; thioether N-14), the IC50 is 0.0049 µM.

On to `CC(C)C[C@H]1NC(=O)[C@H](C)N(C)C(=O)[C@H](Cc2ccc(C(N)=O)cc2)NC(=O)[C@H](Cc2ccc(-c3ccccc3)cc2)NC(=O)[C@H](Cc2ccc(C(=O)O)cc2)NC(=O)[C@H](Cc2cccc(C(F)(F)F)c2)NC(=O)[C@H](CC(=O)O)NC(=O)[C@H](Cc2ccc(C(=O)O)cc2)NC(=O)[C@H]([C@H](C)N)NC(=O)CSC[C@@H](C(=O)N[C@@H](CCN)C(N)=O)NC(=O)[C@H](CO)NC(=O)[C@H](C(C)(C)O)NC(=O)[C@H](CC2CCCCC2)NC(=O)[C@H](CCN)NC1=O` [Example 5208] ({CH2CO}-[Abu(3S-NH2)][Phe(4-COOH)]D[Phe(3-CF3)][Phe(4-COOH)][Bip][Phe(4-CONH2)][NMeA][dL][Dab][Cha][Val(3-OH)]SC[Dab]-NH2; thioether N-14), for which the IC50 amounted to 0.0038 µM.
